Key:
[1] = test system: Calu-3 cells; assay: 5 day viability assay, CellTiter-Glo 2.0; type: cell-based; details: Homo sapiens, Calu3, ERBB2 amplification, Chromosomal, read-out: 3-5 day acute cytotoxicity EC50
Description: (§1) For these long-term growth curves, the EC50 of targeted therapy was first determined in short term 5 day viability assays. To determine the EC50 of irbinitinib, H2170 cells were plated at 3000 cell/well in a 96-well plate; SKBR3 and Calu-3 cells were plated at 3500 cells/well in a 96-well plate. All cells were dosed with irbinitinib continuously for 5 days (serial dilutions ranging from 12 nM to 1 uM) along with a DMSO control. EC50 curves were determined based on cell viability using CellTiter-Glo 2.0 reagent (Promega). […]

[2] = test system: H2170 cells; assay: 5 day viability assay, CellTiter-Glo 2.0; type: cell-based; details: Homo sapiens, NCI-H2170
Description: as §1

[3] = test system: SKBR3 cells; assay: 5 day viability assay, CellTiter-Glo 2.0; type: cell-based; details: Homo sapiens, SK-BR-3; SKBP3, ERBB2 amplification, Chromosomal; read-out: 3-5 day acute cytotoxicity EC50
Description: as §1

[4] = test system: Calu-3 cells; assay: Long-term growth curves under targeted inhibitor; type: cell-based; details: Calu3, ERBB2 Chromosomal; 2× then 4× the relative EC50, 6 weeks
Description: (§2) To measure growth kinetics over time, each cell line was treated once or twice per week with targeted inhibitor against the amplified oncogene.

[5] = test system: SKBR3 cells; assay: Long-term growth curves under targeted inhibitor; type: cell-based; details: SKBP3, ERBB2 Chromosomal; 2× then 4× the relative EC50, 6 weeks
Description: as §2

[6] = test system: COLO320-DM and SNU16 (ecDNA+), COLO320-HSR and DLD1 (ecDNA−) cell models; assay: In vitro soft agar colony formation assay, 21 days, RNRi (FIG. 40A); type: cell-based; details: treated once on day of seeding, increasing doses
Description: (§3) FIGS. 40A-40C show inhibition of RNR blocks nucleotide synthesis causing enhanced replication stress and reduced cellular transformation in ecDNA+ compared to ecDNA-tumor cells. […] In FIG. 40A, to evaluate cellular transformation, an in vitro soft agar colony formation assay was conducted wherein ecDNA bearing COLO320-DM and SNU16 cell models were grown alongside ecDNA− cell models, COLO320-HSR and DLD1 in this 3D-format assay for 21 days. Cells were treated individually only once on the day of the seeding of cells at increasing doses of RNRi, (5-chloro-2-[[rac-(1S,2R)-2-(6-fluoro-2,3-dimethyl-phenyl)-1-(2-oxo-3H-1,3,4-oxadiazol-5-yl)propyl]sulfamoyl]benzamide). In FIG. 40B, to determine change in ecDNA carrying MYC amplified oncogene counts, ecDNA+ (COLO320-DM) cells were treated with an IC-90 dose (10 uM) of RNRi for 21 days. Cells in log-growth phase were arrested in metaphase. FISH (Florescent in-situ hybridization) for MYC oncogene was performed on the fixed metaphase spreads and the nuclei were counterstained with DAPI. […] Cells were lysed and immunoblotted with pRPA32-S33 antibody as a marker of ssDNA-damage induced replication stress.

[7] = test system: ecDNA+ (COLO320-DM) cells; assay: IC-90 and IC-70 doses of RNRi in COLO320-DM cells; type: cell-based
Description: as §3

[8] = test system: HeLa cells; assay: HeLa cell confluence by high-content microscopy over three weeks, with or without 100 nM methotrexate; type: cell-based; details: three weeks
Description: Cell confluence was measured via high-content microscopy over the time course.
HeLa cells were treated with a WEE1 inhibitor, 0.01-0.3 μM adavosertib alone, with 1 nM-100 nM PD0166285, with 100 nM methotrexate alone, or with a combination of 0.01-0.3 μM adavosertib and 100 nM methotrexate or a combination of 1 nM-100 nM PD0166285 and 100 nM methotrexate over the course of three weeks. Cell confluence was measured via high-content microscopy over the time course.
HeLa cells were treated with a PARG inhibitor, 3-100 μM PD00017273 with (FIG. 35 top panel) or without (FIG. 35 bottom panel) 100 nM methotrexate over the course of 3 weeks. Cell confluence was measured via high-content microscopy over the time course.
Cell confluence was measured via high-content microscopy over the time course. […] However.

[9] = test system: HeLa ecDNA+ and HeLa ecDNA− cells; assay: HeLa ecDNA+ vs ecDNA− response to Chk1 inhibition, RS and DNA damage markers (FIG. 41A); type: cell-based
[10] = test system: ecDNA+ (Colo320 DM) and ecDNA− (Colo320 HSR) cells; assay: p-RPA32 S4/S8 foci by immunofluorescence after CHK1i (FIG. 41B); type: cell-based; details: 16 hr treatment
From the text: Increased Chk1 phosphorylation at S345 indicates higher activation of RS-activated ATR kinase, while increased gH2AX indicates increased damage resulting from DNA double stranded breaks triggered by replication stress. […] Hyperphosphorylated form of Replication Protein A (RPA) 32 Ser4/Ser8 was detected by immunofluorescence in fixed ecDNA+ (Colo320 DM) and ecDNA− (Colo320 HSR) cell line models that were previously treated with CHK1 i GDC-0575 for 16 hr. Representative bar graph represents % total nuclei positive for P-RPA32 S4/S8 foci (minimum threshold of >3 puncta/nuclei) detected by immunofluorescence in ecDNA+ and ecDNA− cells.

[11] = test system: MYC, FGFR2, and EGFR copy number in SNU16 cells; assay: qPCR gene copy number in SNU16 cells during infigratinib treatment; type: cell-based, human; details: 1 μM infigratinib for 9 weeks
Description: The SNU16 cells were treated with 1 μM of an FGFR inhibitor (infigratinib) for 9 weeks. DNA was collected at days 3, 14, 28, 42, 56, and 63 days and qPCR was performed to assess copy number for MYC. FGFR2, and EGFR at each time point. Cells after 8 weeks of infigratinib treatment and untreated SNU16 control cells were also assayed by FISH for EGFR.
To assess ecDNA copy number dynamics throughout the development of infigratinib resistance, DNA was extracted using the QIAamp DNA Mini Kit (Qiagen) and the DNA was amplified via quantitative PCR (qPCR) using Taqman copy number assays (ThermoFisher). The EGFR Taqman assay ID was Hs00997424_cn; GFGR2 assay ID was Hs05182482_cn; and the MYC assay ID was Hs03660964_cn. The cycle threshold values were normalized to the internal RNase P Taqman assay, and gene copy number was calculated using the ΔΔCt method and the DNA from a diploid control cell line, DLD1.
Methods: SNU16 control cells were cultured in RPMI-1640 media with 10% FBS under standard tissue culture conditions at 37° C. and with 5% CO2. Low passage control cells were treated with 1 μM infigratinib over the course of 9 weeks. Cells were passaged as needed and media and infigratinib were replaced at least once per week. DNA was collected at day 3 and weeks 2, 4, 6, 8 and 9. Cells in metaphase were collected at 8 weeks from both control and infigratinib-resistant cells.

[12] = test system: SNU16 cells; assay: Long-term cell growth / resistance development in SNU16 cells; type: cell-based, human; details: for cell growth / resistance formation: 9 weeks
Description: Each treatment arm was terminated once the cell number reached 5×10^6.
SNU16 cells were subdivided into five groups and each group of 1×10^6 cells was subjected to treatment with 1 μM infigratinib, 1 μM erlotinib, 1 μM infigratinib and 1 μM erlotinib, 0.1 μM adavosertib and cell growth was recorded over 9 weeks.
SNU16 cells were subdivided into five groups and each group of 1×10^6 cells was subjected to treatment with infigratinib, erlotinib, PD00017273, infigratinib and erlotinib, or infigratinib and PD00017273 and cell growth was recorded over 9 weeks.
SNU16 (CRL-5974) cell line was purchased from ATCC. SNU16 cells were grown in RPMI 1640 medium (Fisher Scientific) with 10% FBS and 100 U/ml penicillin/streptomycin (Fisher Scientific). For the resistance experiments, SNU16 cells were plated at 2 million per T75 flask and were treated with either 1 μM infigratinib (Selleck Chemicals), 1 μM erlotinib (Selleck Chemicals), 10 nM gemcitabine (Sigma Aldrich), or a combination. The media was changed and fresh drug was added at least once per week. The cells were counted over the span of several weeks to measure cell growth.

[13] = test system: infigratinib-resistant SNU16 cells; assay: Secondary resistance, cell growth of infigratinib-resistant SNU16 cells over 5 weeks; type: cell-based, human; details: FIG. 26, 1 uM infigratinib, 1 uM erlotinib, 10 nM gemcitabine
Description: The infigratinib-resistant SNU16 cells (generated as shown in FIG. 25) were subdivided into six groups and each group of 1×10^6 cells was subjected to treatment with 1 uM infigratinib, 1 uM erlotinib, 10 nM gemcitabine, or 1 uM erlotinib+10 nM gemcitabine and the cell growth was recorded over 5 weeks. Each treatment arm was terminated once the cell number reached 5×10^6.

[14] = test system: SNU16 cells; assay: 5 day viability assay, CellTiter-Glo 2.0; type: cell-based; details: Homo sapiens, SNU-16
[15] = test system: KATOIII cells; assay: 5 day viability assay, CellTiter-Glo 2.0; type: cell-based; details: Homo sapiens, KATO III
[16] = test system: KATOIII cells; assay: Long-term growth curves under targeted inhibitor; type: cell-based; details: infigratinib at EC90 (1 uM), 11 weeks
Description: as §2

[17] = test system: SNU16 cells; assay: Long-term growth curves under targeted inhibitor; type: cell-based, human; details: infigratinib at EC90 (1 uM), 6 weeks
Description: as §2

Compound `Cc1cc(Nc2ncnc3ccc(NC4=NC(C)(C)CO4)cc23)ccc1Oc1ccn2ncnc2c1` [irbinitinib] has an EC50 [1] of 414 nM, an EC90 [2] of 500 nM and an EC50 ([2]; H2170, ERBB2 amplification, ecDNA, read-out: 3-5 day acute cytotoxicity EC50) of 110 nM. The EC50 [3] was 43 nM, the “Long-term culture growth properties” value [4] was “Reduced proliferation” and the “Long-term culture growth properties” value [5] was under 1% viability >6 weeks.

`Cc1ccc(F)c([C@@H](C)[C@H](NS(=O)(=O)c2ccc(Cl)cc2C(N)=O)c2n[nH]c(=O)o2)c1C` (racemic) [5-chloro-2-[[rac-(1S,2R)-2-(6-fluoro-2,3-dimethyl-phenyl)-1-(2-oxo-3H-1,3,4-oxadiazol-5-yl)propyl]sulfamoyl]benzamide] was tested, and the “cellular transformation, replication stress” value [6] was “enhanced replication stress and reduced cellular transformation in ecDNA+ compared to ecDNA(−) tumor cells”, the IC-70 dose [7] was 7 µM and the IC90 ([7]; Homo sapiens, COLO 320DM) was 10000 nM.

In the case of `N[C@@H]1CCCN(c2c(Br)cnc3[nH]cc(NC(=O)C4CC4)c23)C1` [GDC-0575], the “development of methotrexate resistance” value ([8]; in combination with 100 nM methotrexate) is reported as “prevented development of methotrexate resistance”, the “cell growth (cell confluence), agent alone” value ([8]; 10 nM GDC-0575, 100 nM methotrexate, 300 nM-10 μM AZD6738) is reported as “no effect on cell growth” and the “induction of markers of RS and DNA damage (Chk1 phosphorylation at S345, gH2AX)” value ([9]; 200 nM for 24 h) is reported as “much stronger induction of markers of RS and DNA damage than ecDNA− cells”. The “sensitivity of HeLa ecDNA+ over HeLa ecDNA− cells” value ([9]; HeLa ecDNA+ grown in 1 uM methotrexate) was “increased sensitivity” and the “pRPA levels (% total nuclei positive for P-RPA32 S4/S8 foci)” value [10] was “increases pRPA levels in ecDNA+ (DM) cells vs. matched ecDNA− (HSR) cells”.

In the case of `CCN1CCN(c2ccc(Nc3cc(N(C)C(=O)Nc4c(Cl)c(OC)cc(OC)c4Cl)ncn3)cc2)CC1` [infigratinib], the “copy number for MYC and FGFR2” value [11] is reported as “remained relatively constant”, the “copy number of EGFR” value [11] is reported as “increased” and the “cell growth / development of primary resistance” value ([12]; FIG. 25, 12 weeks, 1 uM infigratinib, 1 uM erlotinib, 10 nM gemcitabine) is reported as “strongly suppressed cell growth for 5 weeks, after which cells developed resistance and grew rapidly”. For the same compound, the “cell growth / resistance formation” value ([12]; FIG. 30, 1 μM infigratinib, 1 μM erlotinib, 0.1 μM adavosertib) was “transient growth suppression”, the “cell growth / resistance formation” value ([12]; FIG. 34) was “transient growth suppression for approximately 3 weeks” and the “cell growth / development of secondary resistance” value [13] was “no effect on cell growth on its own”. The EC90 ([14]; SNU16) was 1000 nM, the EC50 ([14]; SNU16, ecDNA, read-out: 3-5 day acute cytotoxicity EC50) was 14 nM and the EC90 [15] was 1000 nM. For the same compound, the EC50 ([15]; Chromosomal, read-out: 3-5 day acute cytotoxicity EC50) was 13 nM, the “Long-term culture growth properties” value [16] was under 1 viability >10 weeks and the “Long-term culture growth properties” value [17] was “Near normal”.

Reference: patent US11642345B2, “Replication stress pathway agent compositions and methods for treating cancer” (Boundless Bio, Inc., priority 2020, dated 2023)
